Test results as given in ChEMBL document CHEMBL1201862, “PubChem BioAssay data set” (2004).
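Method: 48-hour compound exposure of cells in 96-well plates, five concentrations, linear interpolation of endpoints. The concentration for 50% growth inhibition is given as GI50.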 The source made the active and inactive calls. Cut-off read from the data, not from the text of the source: active = GI50 up to about 1.1 µM and inactive = higher.

What was measured:
Test in all cases: DTP human tumour cell line panel, 48 h
786-0 = test system: 786-0
A498 = test system: A498
BT-549 = test system: BT-549
CCRF-CEM = test system: CCRF-CEM
COLO 205 = test system: COLO 205
HCT-15 = test system: HCT-15
HOP-62 = test system: HOP-62
HT-29 = test system: HT-29
Hs-578T = test system: Hs-578T
MCF7 = test system: MCF7
MDA-MB-435 = test system: MDA-MB-435
MOLT-4 = test system: MOLT-4
NCI-H226 = test system: NCI-H226
RPMI-8226 = test system: RPMI-8226
SF-295 = test system: SF-295
SK-MEL-2 = test system: SK-MEL-2
SK-OV-3 = test system: SK-OV-3
SN12C = test system: SN12C
T47D = test system: T47D
HOP-92 = test system: HOP-92

Row | SMILES | GI50 (786-0) | GI50 (A498) | GI50 (BT-549) | GI50 (CCRF-CEM) | GI50 (COLO 205) | GI50 (HCT-15) | GI50 (HOP-62) | GI50 (HT-29) | GI50 (Hs-578T) | GI50 (MCF7) | GI50 (MDA-MB-435) | GI50 (MOLT-4) | GI50 (NCI-H226) | GI50 (RPMI-8226) | GI50 (SF-295) | GI50 (SK-MEL-2) | GI50 (SK-OV-3) | GI50 (SN12C) | GI50 (T47D) | GI50 (HOP-92)
1 | COc1ccc2oc(=O)c(CC=C(C)C)c(O)c2c1C | > 100 µM (inactive) | > 100 µM (inactive) | > 100 µM (inactive) | > 100 µM (inactive) | > 100 µM (inactive) | > 100 µM | > 100 µM (inactive) | > 100 µM (inactive) | > 100 µM (inactive) | > 100 µM (inactive) | > 100 µM (inactive) | 36.4 µM (inactive) | > 100 µM (inactive) | > 100 µM (inactive) | > 100 µM (inactive) | > 100 µM (inactive) | > 100 µM (inactive) | > 100 µM (inactive) | > 100 µM (inactive) | –
2 | O=c1oc2ccccc2cc1/C=N/N1C(=S)N(c2ccccc2)C(=N\c2ccccc2)/C1=N/c1ccccc1 | > 100 µM (inactive) | – | > 100 µM (inactive) | – | > 100 µM (inactive) | > 100 µM | 52.2 µM (inactive) | > 10 µM (inactive) | > 100 µM (inactive) | > 100 µM (inactive) | > 100 µM (inactive) | > 100 µM (inactive) | > 100 µM (inactive) | > 100 µM (inactive) | 28.1 µM (inactive) | > 100 µM (inactive) | > 100 µM (inactive) | > 100 µM (inactive) | 3.49 µM (inactive) | > 100 µM (inactive)
3 | O=S(=O)(O)c1ccc2c(/N=N/c3cccc4ccccc34)c(O)ccc2c1 | > 100 µM (inactive) | > 100 µM (inactive) | > 100 µM (inactive) | > 100 µM (inactive) | > 100 µM (inactive) | > 100 µM | > 100 µM (inactive) | > 100 µM (inactive) | > 100 µM (inactive) | – | > 100 µM (inactive) | > 100 µM (inactive) | > 100 µM (inactive) | > 100 µM (inactive) | 39.1 µM (inactive) | > 100 µM (inactive) | > 100 µM (inactive) | > 100 µM (inactive) | > 100 µM (inactive) | > 100 µM (inactive)
4 | CCOC(=O)c1ccc2nc(NC(=O)COC(=O)CSc3nc(C)cc(C)n3)sc2c1 | 97.1 µM (inactive) | 34 µM (inactive) | 31.2 µM (inactive) | 1.52 µM (inactive) | 99.1 µM (inactive) | 46.6 µM | 13.7 µM (inactive) | 66.2 µM (inactive) | 36 µM (inactive) | 35.9 µM (inactive) | > 100 µM (inactive) | 42.5 µM (inactive) | – | 53 µM (inactive) | 36.6 µM (inactive) | > 100 µM (inactive) | 32.5 µM (inactive) | 39 µM (inactive) | 16.7 µM (inactive) | 24.8 µM (inactive)
5 | CCOC(=O)Nc1sc2c(c1C#N)CC(C)CC2 (stereo not given) | 10.1 µM (inactive) | – | 19.7 µM (inactive) | – | 4.17 µM (inactive) | 2.75 µM | 9.79 µM (inactive) | 3.06 µM (inactive) | 8.59 µM (inactive) | 3.96 µM (inactive) | 1.32 µM (inactive) | 4.9 µM (inactive) | 6.15 µM (inactive) | 4.86 µM (inactive) | 11.6 µM (inactive) | 2.16 µM (inactive) | 23 µM (inactive) | 9.62 µM (inactive) | 10.5 µM (inactive) | 25.4 µM (inactive)
6 | Clc1cc(OCC23CC4CC(CC(C4)C2)C3)nc(OCC23CC4CC(CC(C4)C2)C3)n1 | > 100 µM (inactive) | > 100 µM (inactive) | > 100 µM (inactive) | > 100 µM (inactive) | > 100 µM (inactive) | > 100 µM | > 100 µM (inactive) | > 100 µM (inactive) | > 100 µM (inactive) | > 100 µM (inactive) | > 100 µM (inactive) | > 100 µM (inactive) | – | > 100 µM (inactive) | 41.7 µM (inactive) | > 100 µM (inactive) | > 100 µM (inactive) | > 100 µM (inactive) | > 100 µM (inactive) | –
7 | CCC(C)C(=O)OCC(=O)c1ccc(-c2ccccc2)cc1 (stereo not given) | > 100 µM (inactive) | 32.7 µM (inactive) | 45.4 µM (inactive) | 35 µM (inactive) | > 100 µM (inactive) | 18.1 µM | > 100 µM (inactive) | 34.6 µM (inactive) | 45.9 µM (inactive) | 44.8 µM (inactive) | 99.1 µM (inactive) | 46.9 µM (inactive) | – | 24.5 µM (inactive) | 59.8 µM (inactive) | 41.6 µM (inactive) | > 100 µM (inactive) | > 100 µM (inactive) | 22.3 µM (inactive) | > 100 µM (inactive)
